Test results as given in patent US9115093B2, “Substituted bicyclic dihydropyrimidinones and their use as inhibitors of neutrophil elastase activity” (Boehringer Ingelheim International GmbH, priority 2013, dated 2015).

biological target: T1, neutrophil elastase (Homo sapiens, UniProt P08246); assay: Human Neutrophil Elastase Assay; type: biochemical; parameters: purchased Calbiochem 324681; conditions: substrate MeOSuc-Ala-Ala-Pro-Val-AMC, pH 7.5, room temperature
T1 sequence (P08246 30-247 limits assumed): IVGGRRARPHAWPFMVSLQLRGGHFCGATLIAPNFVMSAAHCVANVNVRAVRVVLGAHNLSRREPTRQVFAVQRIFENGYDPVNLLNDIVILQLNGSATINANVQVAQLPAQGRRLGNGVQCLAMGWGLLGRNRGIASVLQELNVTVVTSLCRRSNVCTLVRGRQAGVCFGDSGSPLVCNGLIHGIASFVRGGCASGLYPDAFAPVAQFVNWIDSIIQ
In short: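 Readout: AMC fluorescence (ex 380, em 460 nm) after 60 min room-temperature reaction with 250 nM MeOSuc-AAPV-AMC, following 15 min compound–enzyme preincubation. Buffer: Tris/NaCl pH 7.5, 0.01% BSA.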

First: CS(=O)(=O)c1cc(C#N)ccc1C1C2=C(CCCC2=O)N(c2cccc(C(F)(F)F)c2)C(=O)N1CC1CCOCC1 (stereo not drawn) [Example 58.5]
Second: CS(=O)(=O)c1cc(C#N)ccc1C1C2=C(CCCC2=O)N(c2cccc(C(F)(F)F)c2)C(=O)N1CCC1CCOCC1 (stereo not drawn) [Example 58.6]
The IC50 of the first is higher: 1.9 nM for the first, less than 1 nM for the second. The second is the more potent here.

Compared with `CS(=O)(=O)c1cc(C#N)ccc1[C@@H]1C2=C(CCCC2=O)N(c2cccc(C(F)(F)F)c2)C(=O)N1CC#N` [Example 59, (S)-4-(3-(Cyanomethyl)-2,5-dioxo-1-(3-(trifluoromethyl)phenyl)-1,2,3,4,5,6,7,8-octahydroquinazolin-4-yl)-3-(methylsulfonyl)benzonitrile], `CN(C)C(=O)CN1C(=O)N(c2cccc(C(F)(F)F)c2)C2=C(C(=O)CCC2)C1c1ccc(C#N)cc1S(C)(=O)=O` (stereo not drawn) [Example 62, 2-(4-(4-Cyano-2-(methylsulfonyl)phenyl)-2,5-dioxo-1-(3-(trifluoromethyl)phenyl)-1,2,5,6,7,8-hexahydroquinazolin-3(4H)-yl)-N,N-dimethylacetamide] is 1.5-fold lower in IC50: 1.8 nM for the first, 1.2 nM for the second. The second is the more potent here.

Compared with `CCOC(=O)C(F)N1C(=O)N(c2cccc(C(F)(F)F)c2)C2=C(C(=O)CCC2)C1c1ccc(C#N)cc1` (stereo not drawn) [Example 60, Ethyl 2-(4-(4-Cyanophenyl)-2,5-dioxo-1-(3-(trifluoromethyl)phenyl)-1,2,5,6,7,8-hexahydroquinazolin-3(4H)-yl)-2-fluoroacetate], `N#Cc1ccc(C2C3=C(CCCC3=O)N(c3cccc(C(F)(F)F)c3)C(=O)N2C(N)=O)cc1` (stereo not drawn) [Example 70, 4-(4-Cyanophenyl)-2,5-dioxo-1-(3-(trifluoromethyl)phenyl)-1,2,5,6,7,8-hexahydroquinazoline-3(4H)-carboxamide] is 3.6-fold lower in IC50: 21.6 nM for the first, 6 nM for the second.

First: CC(C(=O)NCCO)N1C(=O)N(c2cccc(C(F)(F)F)c2)C2=C(C(=O)CCC2)C1c1ccc(C#N)cc1 (stereo not drawn) [Example 61, 2-(4-(4-Cyanophenyl)-2,5-dioxo-1-(3-(trifluoromethyl)phenyl)-1,2,5,6,7,8-hexahydroquinazolin-3(4H)-yl)-N-(2-hydroxyethyl)propanamide]
Second: CCNC(=O)N1C(=O)N(c2cccc(C(F)(F)F)c2)C2=C(C(=O)CCC2)C1c1ccc(C#N)cc1 (stereo not drawn) [Example 70.1]
The IC50 of the first is higher: 6.6 nM for the first, less than 1 nM for the second.

Going from `Cc1cc(C#N)ccc1C1C2=C(CCCC2=O)N(c2cccc(C(F)(F)F)c2)C(=O)N1C` (stereo not drawn) [Example 63, 3-Methyl-4-(3-methyl-2,5-dioxo-1-(3-(trifluoromethyl)phenyl)-1,2,3,4,5,6,7,8-octahydroquinazolin-4-yl)benzonitrile] to `Cc1cc(C#N)ccc1C1C2=C(CCCC2=O)N(c2cccc(C(F)(F)F)c2)C(=O)N1S(C)(=O)=O` (stereo not drawn) [Example 66, 3-Methyl-4-(3-(methylsulfonyl)-2,5-dioxo-1-(3-(trifluoromethyl)phenyl)-1,2,3,4,5,6,7,8-octahydroquinazolin-4-yl)benzonitrile], the IC50 falls from 7.9 nM to 2 nM (4-fold). The second is the more potent here.

`CN1C(=O)N(c2ccnc(C(F)(F)F)c2)C2=C(C(=O)CCC2)C1c1ccc(C#N)cc1` (stereo not drawn) [Example 65, 4-(3-Methyl-2,5-dioxo-1-(2-(trifluoromethyl)pyridin-4-yl)-1,2,3,4,5,6,7,8-octahydroquinazolin-4-yl)benzonitrile] and `CS(=O)(=O)N1C(=O)N(c2ccnc(C(F)(F)F)c2)C2=C(C(=O)CCC2)C1c1ccc(C#N)cc1` (stereo not drawn) [Example 69, 4-(3-(Methylsulfonyl)-2,5-dioxo-1-(2-(trifluoromethyl)pyridin-4-yl)-1,2,3,4,5,6,7,8-octahydroquinazolin-4-yl)benzonitrile] are within 1.5-fold of each other in IC50: 22.6 nM for the first, 23.8 nM for the second.

Compared with `CS(=O)(=O)N1C(=O)N(c2cccc(C(F)(F)F)c2)C2=C(C(=O)CCC2)C1c1ccc(C#N)cc1Cl` (stereo not drawn) [Example 67, 3-Chloro-4-(3-(methylsulfonyl)-2,5-dioxo-1-(3-(trifluoromethyl)phenyl)-1,2,3,4,5,6,7,8-octahydroquinazolin-4-yl)benzonitrile], `N#CCNC(=O)N1C(=O)N(c2cccc(C(F)(F)F)c2)C2=C(C(=O)CCC2)C1c1ccc(C#N)cc1` (stereo not drawn) [Example 70.2] is lower in IC50: 6.7 nM for the first, less than 1 nM for the second. The second is the more potent here.

`N#Cc1ccc(C2C3=C(CCCC3=O)N(c3cccc(C(F)(F)F)c3)C(=O)N2C(=O)NC2CC2)cc1` (stereo not drawn) [Example 70.3] was tested, and the IC50 was less than 1 nM.
